Drawing on patent EP1026165A1, “O-substituted Hydroxycoumaranone derivatives as antitumor and antimetastatic agents” (Roche Diagnostics GmbH, priority 1999, dated 2000), this text covers IC50 for two molecules.

In this assay the target is uPAR (Homo sapiens, UniProt Q03405). Nature of the assay: BIO-R4 assay (ELISA test): inhibition of uPA binding to its specific receptor uPAR. To be noted: Inhibition of uPA binding to the specific uPAR receptor (BIO-R4); detection at 405 nm. On the procedure:
The compounds of the invention were tested (ELISA test) as inhibitors of human urokinase (uPA) binding to its specific receptor uPAR mAk (BIO-R4), according to the procedure described in Biol. Chem. Hoppe-Seyler, 376, 587-94 (1995) by Rettenberger et al. The assays are performed in Microtiterplates (96 wells). The following solutions are used: • washing buffer: PBS-buffer (without Mg^2+ and Ca^2+) + 0.05% Tween 20; • incubation buffer (IP): 1% skimmed milk powder in PBS-buffer (without Mg^2+ and Ca^2+); • BIO-R4 solution: 50 ng/well (0.5 µg/ml 100 µl/well) in IP; • uPAR solution: 3 ng/well (30 ng/ml; 100 µl/well) in PBS-buffer (without Mg^2+ and Ca^2+); • blocking solution: 1% skimmed milk powder in washing buffer (dissolved at 37°C); • uPA solution: 0.25 ng/well (5 ng/ml; 50 µl/well) in IP.
Detection solutions (per microtiterplate):
• (1) 6 ml (100 mM Tris-Cl pH 7.2 + 0.15% Tween 80) + 1.5 ml (10 µg) plasminogen in aqua bidest; • (2) 6 ml (100 mM Tris-Cl pH 7.2 + 0.15% Tween 80) + 1.5 ml (7.5 mg) chromozyme PL in aqua bidest. […]
For detection, the following procedure is used: Incubation with 50 µl each of detection solution (1) and (2) at room temperature. After 20 minutes a yellow colour will be visible (the positive control reads an extinction of 1 after 45-60 minutes). The detection is performed at 405 nm (reference is 490 nm) using a Dynatech MR 7000 ELISA reader. […]
In general terms: ELISA stands for enzyme-linked immunosorbent assay.

Sequence of uPAR (Q03405 23-305 limits assumed): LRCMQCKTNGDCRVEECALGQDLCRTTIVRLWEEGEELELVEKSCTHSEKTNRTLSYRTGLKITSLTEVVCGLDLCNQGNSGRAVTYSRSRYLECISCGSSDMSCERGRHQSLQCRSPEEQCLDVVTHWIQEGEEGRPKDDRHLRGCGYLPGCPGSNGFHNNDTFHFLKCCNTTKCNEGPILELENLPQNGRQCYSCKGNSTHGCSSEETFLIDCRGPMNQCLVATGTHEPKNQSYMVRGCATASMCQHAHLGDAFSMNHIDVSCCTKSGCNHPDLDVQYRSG

In general, IC50 refers to the concentration that gives 50% inhibition. Lower therefore signals inhibition by little substance. In turn, `CC(C)=C1Oc2cccc(OCC#CCN3CCC(NC(=O)c4ccc(Cl)c(S(N)(=O)=O)c4)CC3)c2C1=O` [Example 4, 4-{4-[4-(3-aminosulfonyl-4-chlorobenzamido)piperidino]but-2-ynoxy}-2-isopropylidenecoumaran-3-one] yielded an IC50 of 1790 nM. The same measure for `CC(C)=C1Oc2cccc(OCc3cccc(CN4CCC(NC(=O)c5ccc(Cl)c(Cl)c5)CC4)c3)c2C1=O` [Example 11, 4-{3-[4-(3,4-dichlorobenzamido)piperidinomethyl]phenylmethoxy}-2-isopropylidenecoumaran-3-one]: 1410 nM.
